Legend:
Balb/c mice [1] = test: Antibody-induced acute lung injury (TRALI model), protein content in BAL fluids; assay type: in vivo, mouse (Balb/c); details: antibodies 1 mg/kg i.v. or n-acetyl cysteine 150 mg/kg i.v. 5 min before anti-H2d 3.5 mg/kg; BAL 2 h later
Protocol: Antibody-induced acute lung injury. Balb/c male mice (8-12 week-old) were injected i.v. with 3.5 mg/kg of anti-H2d (clone 34-1-2s) or control H2b (clone 28-8-6s) antibodies. After 2 h, BAL was performed on anesthetized mice by 3 washes with 1 ml PBS each using a 18G needle, and the protein content assessed by the bicinchoninic acid method (BCA; Pierce, Rockford, Ill.). In some experiments, mice were pre-treated as follows: rabbit anti-platelet serum (25 μl; i.p. injection; Accurate Chemicals; Westbury, N.Y.) diluted in 200 μl of PBS, 2 h prior anti-H2d treatment; 1 mg/kg i.v. injection of control or anti-P-selectin, E-selectin or anti-αMβ2 antibodies 5 min before anti-H2d; 150 mg/kg i.v. injection of n-acetyl cysteine 5 min before anti-H2d . Platelet and leukocyte counts from blood samples obtained at the end of the experiment were determined using a hematological Coulter® AC-T diff™ l Analyzer (Beckman Coulter, Miami, Fla.). None of these treatments affected circulating leukocyte counts (not shown). In the TRALI experiments involving intravital imaging of the cremasteric microcirculation, TNF-α was injected intrascrotally to allow the recruitment and imaging of inflammatory leukocytes.

Balb/c mice [2] = test: Vascular permeability, FITC-dextran extravasation in cremasteric venules after anti-H2d; assay type: in vivo, mouse (Balb/c); details: TNF-α-treated mice, pre-treatment with antibodies 1 mg/kg or n-acetyl cysteine 150 mg/kg, imaged 30 min later
Protocol: Vascular permeability. To analyze anti-MHC-I-induced vascular damage, Balb/c mice were intravenously infused with 3.5 mg/kg of anti-MHC-I antibodies (to H2d or control H2b) and 1 mg of FITC-Dextran (70 Kd; Sigma-Aldrich) 210 min after TNF-α-treatment.
In some experiments, mice were pre-treated with 25 μL rabbit anti-platelet serum to deplete platelets, 1 mg/kg of control, anti-E-selectin or anti-αMβ2 antibodies, or 150 mg/kg of n-acetyl cysteine. Random fields containing small venules were imaged 30 min later using the FITC channel under a LumPlanFl 10× objective, NA 0.30 w. Images were masked over a threshold to quantify all FITC-Dextran-associated fluorescence intensity as well as the signal corresponding only to intravascular spaces. The percentage of extravasated FITC-Dextran was finally obtained using the formula: [(Total intensity−Intravascular intensity)/Total intensity]×100.

[3] = tested on: ROS-producing adherent leukocytes; test: In vivo detection of ROS-producing adherent leukocytes (dihydroxyrhodamine-123, MFIM); parameters: species or system mouse (Balb/c); details: TNF-α-treated mice; pre-treatment with anti-E-selectin 1 mg/kg or n-acetyl cysteine 150 mg/kg
Protocol: In vivo detection of leukocytes producing reactive oxygen species (ROS). Balb/c mice prepared for MFIM were injected i.v. with 29 nmoles of dihydroxyrhodamine-123 (DHR; Molecular Probes, Eugene, Oreg.). DHR uptaken by leukocytes actively producing ROS converts into fluorescent rhodamine-123 (507/529 nm) which can be detected by a bright punctuated pattern in the FITC channel (FIG. 11). In some experiments, mice were pre-treated with 25 μL rabbit anti-platelet serum to deplete platelets, 1 mg/kg of anti-E-selectin antibody, or 150 mg/kg of n-acetyl cysteine. Images were captured in the brightfield and FITC channels before and after injection of 3.5 mg/kg anti-H2d antibody, and the frequency of ROS-producing cells calculated out of all adherent leukocytes in each venular segment.

[4] = tested on: nRBC interactions with adherent leukocytes; test: nRBC-leukocyte interactions, brightfield intravital microscopy of TNF-α-inflamed cremasteric venules; assay type: in vivo, mouse (C57BL/6); details: inhibitor given 120 min after TNF-α: PP2 150 μg/kg, SB203580 100 μg, piceatannol 1 mg; compared to vehicle control (DMSO); FIG. 2f
Protocol: Brightfield intravital microscopy. Brightfield intravital microscopy was performed as previously reported^21,22. For SCD mice, several postcapillary and collecting venules were recorded from 15 min after the surgical preparation (time=0 is surgical section of the cremaster) for 75 minutes (pre-TNF-α), with each venule recorded continuously for at least 2 min. SCD mice were then injected i.p. with 0.5 μg recombinant murine TNF-α (R & D Systems) and then the same venules were videotaped over a period of 90 min (91-180 min), after which venules were recorded again for another 90 min (181-270 min). The role of endothelial selectins was evaluated in identical experiments performed in Selp^−/− or Sele^−/− mice transplanted with BM cells from SCD donor mice, or using antibodies against P- or E-selectin (1 mg/kg) prior to surgery. […] In experiments with non-SCD C57BL/6 mice, TNF-α was administered intrascrotally and images recorded 160-210 min after cytokine injection. […]
Hemodynamic measurements and image analyses for brightfield intravital microscopy. The venular diameter was measured using a video caliper. Centerline RBC velocity was measured for each venule in real time using an optical Doppler velocimeter (Texas A&M, College Station, Tex.). […] Blood flow rate was calculated from the formula: Vmean×π×d^2/4. […]

| Compound | lung injury induced by anti-H2d (protein content in BAL fluids) (Balb/c mice [1]) | vascular permeability (FITC-dextran extravasation) after anti-H2d (Balb/c mice [2]) | vascular permeability (FITC-dextran extravasation) after anti-H2d (Balb/c mice [2]; listed as N-acetyl-cysteine) | ROS-producing adherent leukocytes after anti-H2d [3] | nRBC (normal red blood cell) interactions with leukocytes [4] |
| --- | --- | --- | --- | --- | --- |
| CC(=O)N[C@@H](CS)C(=O)O [n-acetyl-cysteine] | completely prevented lung injury | completely prevented | prevents | prevents ROS generation | – |
| CC(C)(C)n1nc(-c2ccc(Cl)cc2)c2c(N)ncnc21 [PP2, 4-amino-5-(4-chlorophenyl)-7-(t-butyl)pyrazolo[3,4-d]pyramidine] | – | – | – | – | Inhibition of nRBC (normal red blood cell) interactions |

From patent US20120039888A1, “Methods Of Inhibiting Inflammation-Associated Tissue Damage By Inhibiting Neutrophil Activity” (priority 2008, published 2012)
